From ChEMBL document CHEMBL5380794, “Discovery of a Potent and Selective STAT5 PROTAC Degrader with Strong Antitumor Activity In Vivo in Acute Myeloid Leukemia” (J Med Chem, 2023)

Legend:
[1] = biological target: T1, Signal transducer and activator of transcription 5A (Homo sapiens, UniProt P42229); test: Induction of STAT5 degradation in human SKNO-1 cells measured for 18 hrs by Western blot analysis; assay type: cell-based
T1 sequence (P42229 whole entry): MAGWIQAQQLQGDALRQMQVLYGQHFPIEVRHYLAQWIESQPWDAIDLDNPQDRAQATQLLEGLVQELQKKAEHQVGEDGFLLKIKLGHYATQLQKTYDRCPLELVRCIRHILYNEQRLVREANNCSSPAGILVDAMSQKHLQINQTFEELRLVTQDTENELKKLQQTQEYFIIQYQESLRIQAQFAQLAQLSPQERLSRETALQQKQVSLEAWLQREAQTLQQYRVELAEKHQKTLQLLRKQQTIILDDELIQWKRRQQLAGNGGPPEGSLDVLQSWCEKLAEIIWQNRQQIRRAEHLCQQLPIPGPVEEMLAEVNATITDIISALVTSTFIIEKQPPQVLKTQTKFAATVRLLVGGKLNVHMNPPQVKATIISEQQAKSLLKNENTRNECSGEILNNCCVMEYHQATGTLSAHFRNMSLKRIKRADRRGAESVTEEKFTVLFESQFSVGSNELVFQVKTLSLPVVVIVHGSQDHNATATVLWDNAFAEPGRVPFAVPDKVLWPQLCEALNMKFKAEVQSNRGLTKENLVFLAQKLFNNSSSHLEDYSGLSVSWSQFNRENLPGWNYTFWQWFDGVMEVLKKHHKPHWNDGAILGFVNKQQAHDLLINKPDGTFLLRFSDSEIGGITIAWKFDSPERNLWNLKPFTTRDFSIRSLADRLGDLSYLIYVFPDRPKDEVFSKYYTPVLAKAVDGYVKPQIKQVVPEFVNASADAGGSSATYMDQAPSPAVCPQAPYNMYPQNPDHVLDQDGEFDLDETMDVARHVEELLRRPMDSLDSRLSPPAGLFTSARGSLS

[2] = biological target: T2, Signal transducer and activator of transcription 6 (Homo sapiens, UniProt P42226); test: Induction of STAT6 degradation in human SKNO-1 cells measured for 18 hrs by Western blot analysis; assay type: cell-based
T2 sequence (P42226 whole entry): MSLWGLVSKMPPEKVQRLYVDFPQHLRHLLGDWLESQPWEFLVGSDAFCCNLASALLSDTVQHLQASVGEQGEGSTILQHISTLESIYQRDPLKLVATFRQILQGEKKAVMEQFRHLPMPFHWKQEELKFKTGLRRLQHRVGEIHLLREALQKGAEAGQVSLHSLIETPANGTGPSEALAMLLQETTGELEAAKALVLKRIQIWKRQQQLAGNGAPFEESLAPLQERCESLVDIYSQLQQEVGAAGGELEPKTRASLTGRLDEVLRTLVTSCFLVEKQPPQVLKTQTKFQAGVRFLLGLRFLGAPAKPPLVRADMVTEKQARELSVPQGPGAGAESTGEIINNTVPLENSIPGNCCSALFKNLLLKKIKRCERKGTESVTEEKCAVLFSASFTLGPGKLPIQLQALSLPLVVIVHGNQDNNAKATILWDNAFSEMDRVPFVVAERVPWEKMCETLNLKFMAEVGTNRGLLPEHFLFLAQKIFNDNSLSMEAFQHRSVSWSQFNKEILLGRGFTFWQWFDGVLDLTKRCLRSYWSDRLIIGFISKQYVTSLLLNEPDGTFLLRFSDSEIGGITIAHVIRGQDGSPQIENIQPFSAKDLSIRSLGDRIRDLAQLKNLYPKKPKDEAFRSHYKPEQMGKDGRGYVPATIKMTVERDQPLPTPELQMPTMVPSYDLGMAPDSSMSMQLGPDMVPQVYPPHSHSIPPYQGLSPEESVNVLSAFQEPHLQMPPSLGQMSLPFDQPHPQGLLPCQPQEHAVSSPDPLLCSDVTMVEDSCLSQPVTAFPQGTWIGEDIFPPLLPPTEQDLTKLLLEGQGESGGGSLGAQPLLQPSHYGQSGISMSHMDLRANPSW

[3] = biological target: T1, Signal transducer and activator of transcription 5A; test: Binding affinity to N-terminal 6his-tagged human STAT5A (136 to 705 residues) expressed in Escherichia coli BL21-DE3 rosetta cells assessed as inhibition constant by FP assay
[4] = biological target: T2, Signal transducer and activator of transcription 6; test: Binding affinity to STAT6 SH2 domain (unknown origin) assessed as inhibition constant by FP assay
[5] = biological target: T3, Signal transducer and activator of transcription 5B (Homo sapiens, UniProt P51692); test: Binding affinity to STAT5B (unknown origin) assessed as inhibition constant by FP assay
T3 sequence (P51692 whole entry): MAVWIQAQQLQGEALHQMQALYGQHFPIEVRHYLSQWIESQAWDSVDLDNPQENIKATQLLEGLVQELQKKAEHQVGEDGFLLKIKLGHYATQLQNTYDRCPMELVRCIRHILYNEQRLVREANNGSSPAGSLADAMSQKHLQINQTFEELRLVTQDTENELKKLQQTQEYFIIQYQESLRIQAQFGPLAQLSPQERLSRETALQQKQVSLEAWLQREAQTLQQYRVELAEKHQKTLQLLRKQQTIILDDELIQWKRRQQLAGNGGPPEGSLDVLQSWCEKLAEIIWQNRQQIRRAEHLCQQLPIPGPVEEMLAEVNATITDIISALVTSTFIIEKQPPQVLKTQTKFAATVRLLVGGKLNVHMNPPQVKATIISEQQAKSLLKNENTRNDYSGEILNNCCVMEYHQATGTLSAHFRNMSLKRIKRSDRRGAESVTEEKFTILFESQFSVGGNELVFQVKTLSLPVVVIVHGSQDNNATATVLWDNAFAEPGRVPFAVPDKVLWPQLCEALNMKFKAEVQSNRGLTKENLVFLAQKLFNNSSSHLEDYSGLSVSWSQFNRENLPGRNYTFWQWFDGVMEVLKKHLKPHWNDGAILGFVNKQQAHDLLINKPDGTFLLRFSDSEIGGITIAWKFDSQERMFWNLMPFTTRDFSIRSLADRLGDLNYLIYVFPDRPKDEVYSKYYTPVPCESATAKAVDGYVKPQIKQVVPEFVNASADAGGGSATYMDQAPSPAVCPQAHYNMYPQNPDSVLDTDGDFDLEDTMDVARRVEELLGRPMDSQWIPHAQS

[6] = biological target: T4, Signal transducer and activator of transcription 5A (Homo sapiens) (UniProt P42229); test: Induction of STAT5 degradation in human SKNO-1 cells assessed as maximal degradation at 0.05 to 5 uM measured for 18 hrs by Western blot analysis relative to control; assay type: cell-based; details: dose 0.05-5 µM
T4 sequence (whole entry): T1 sequence (P42229 whole entry)

| Compound | DC50 [1] [µM] | DC50 [2] | DC50 ([2]; read-out: DC50) [µM] | Ki [3] [µM] | Ki [4] [µM] | Ki [5] [µM] | Emax [6] [%] |
| --- | --- | --- | --- | --- | --- | --- | --- |
| CC(C)(C)[C@H](NC(=O)c1cc2cc(C(F)(F)P(=O)(O)O)ccc2s1)C(=O)N1CCC[C@H]1C(=O)N(CCC(=O)N1CC(CCC#Cc2cccc3c2CN(C2CCC(=O)NC2=O)C3=O)C1)c1ccc(Br)cc1 (some centres not stated) | 4.2 | Not Active | – | – | – | – | – |
| CC(C)(C)[C@H](NC(=O)c1cc2cc(C(F)(F)P(=O)(O)O)ccc2s1)C(=O)N1CCC[C@H]1C(=O)N(CCC(=O)NCCCCCC#Cc1cccc2c1CN(C1CCC(=O)NC1=O)C2=O)c1ccc(Br)cc1 (some centres not stated) | 1.1 | – | > 5 | – | – | – | – |
| CN(C)C(=O)CCN(C(=O)[C@@H]1CCCN1C(=O)[C@@H](NC(=O)c1cc2cc(C(F)(F)P(=O)(O)O)ccc2s1)C(C)(C)C)c1ccc2ccccc2c1 | – | – | – | 1.2 | 0.2 | 1 | – |
| CN(C)C(=O)CCN(C(=O)[C@@H]1CCCN1C(=O)[C@@H](NC(=O)c1cc2cc(C(F)(F)P(=O)(O)O)ccc2s1)C1CC1)c1ccc(-c2nccs2)cc1 | – | – | – | 2.9 | 1.3 | 3.1 | – |
| CC(C)(C)[C@H](NC(=O)c1cc2cc(C(F)(F)P(=O)(O)O)ccc2s1)C(=O)N1CCC[C@H]1C(=O)N(CCC(=O)NCCCCC#Cc1cccc2c1CN(C1CCC(=O)NC1=O)C2=O)c1ccc(Br)cc1 (some centres not stated) | 0.5 | – | > 5 | – | – | – | – |
| CC(C)(C)[C@H](NC(=O)c1cc2cc(C(F)(F)P(=O)(O)O)ccc2s1)C(=O)N1CCC[C@H]1C(=O)N(CCC(=O)NCCCCCCC#Cc1cccc2c1CN(C1CCC(=O)NC1=O)C2=O)c1ccc(Br)cc1 (some centres not stated) | 1.4 | – | > 5 | – | – | – | – |
| CC(C)(C)[C@H](NC(=O)c1cc2cc(C(F)(F)P(=O)(O)O)ccc2s1)C(=O)N1CCC[C@H]1C(=O)N(CCC(=O)N1CCC(C#Cc2cccc3c2CN(C2CCC(=O)NC2=O)C3=O)CC1)c1ccc(Br)cc1 (some centres not stated) | > 5 | Not Active | – | – | – | – | – |
| CN(C)C(=O)CCN(C(=O)[C@@H]1CCCN1C(=O)[C@H](Cc1ccc(Br)cc1)NC(=O)c1cc2cc(C(F)(F)P(=O)(O)O)ccc2s1)c1ccc(-c2nccs2)cc1 | – | – | – | 1.2 | 3 | 1.6 | – |
| CN(CCCC#Cc1cccc2c1CN(C1CCC(=O)NC1=O)C2=O)C(=O)CCN(C(=O)[C@@H]1CCCN1C(=O)[C@@H](NC(=O)c1cc2cc(C(F)(F)P(=O)(O)O)ccc2s1)C(C)(C)C)c1ccc(Br)cc1 (some centres not stated) | 0.19 | – | > 5 | – | – | – | > 95 |
| CC(C)(C)[C@H](NC(=O)c1cc2cc(C(F)(F)P(=O)(O)O)ccc2s1)C(=O)N1CCC[C@H]1C(=O)N(CCC(=O)NCCC#Cc1cccc2c1CN(C1CCC(=O)NC1=O)C2=O)c1ccc(Br)cc1 (some centres not stated) | > 5 | – | > 5 | – | – | – | – |
| CN(C)C(=O)CCN(C(=O)[C@@H]1CCCN1C(=O)[C@H](Cc1ccc(F)cc1)NC(=O)c1cc2cc(C(F)(F)P(=O)(O)O)ccc2s1)c1ccc(-c2nccs2)cc1 | – | – | – | 1 | 3.5 | 1.7 | – |
| CN(C)C(=O)CCN(C(=O)[C@@H]1CCCN1C(=O)[C@H](CCc1ccccc1)NC(=O)c1cc2cc(C(F)(F)P(=O)(O)O)ccc2s1)c1ccc(-c2nccs2)cc1 | – | – | – | 1.4 | 1.5 | 1.6 | – |
| CC(C)(C)[C@H](NC(=O)c1cc2cc(C(F)(F)P(=O)(O)O)ccc2s1)C(=O)N1CCC[C@H]1C(=O)N(CCC(=O)NCCCC#Cc1cccc2c1CN(C1CCC(=O)NC1=O)C2=O)c1ccc2scnc2c1 (some centres not stated) | 0.45 | – | – | 1 | – | 0.4 | – |
| CN(C)C(=O)CCN(C(=O)[C@@H]1CCCN1C(=O)[C@H](Cc1ccc(C(F)(F)F)cc1)NC(=O)c1cc2cc(C(F)(F)P(=O)(O)O)ccc2s1)c1ccc(-c2nccs2)cc1 | – | – | – | 2.3 | 4 | 2.5 | – |
| CN(C)C(=O)CCN(C(=O)[C@@H]1CCCN1C(=O)[C@@H](NC(=O)c1cc2cc(C(F)(F)P(=O)(O)O)ccc2s1)c1ccccc1)c1ccc(-c2nccs2)cc1 | – | – | – | 3.2 | 2.5 | 4 | – |
| CN(C)C(=O)CCN(C(=O)[C@@H]1CCCN1C(=O)[C@@H](NC(=O)c1cc2cc(C(F)(F)P(=O)(O)O)ccc2s1)C(C)(C)C)c1cccc(-c2nccs2)c1 | – | – | – | 4.9 | 1.9 | 6.1 | – |
| CN(C)C(=O)CCN(C(=O)[C@@H]1CCCN1C(=O)[C@@H](NC(=O)c1cc2cc(C(F)(F)P(=O)(O)O)ccc2s1)C(C)(C)C)c1ccc(-c2ccccc2)cc1 | – | – | – | 3.4 | 2 | 5.2 | – |
| CC(C)(C)[C@H](NC(=O)c1cc2cc(C(F)(F)P(=O)(O)O)ccc2s1)C(=O)N1CCC[C@H]1C(=O)N(CCC(=O)NCCCC#Cc1cccc2c1CN(C1CCC(=O)NC1=O)C2=O)c1ccc2sccc2c1 (some centres not stated) | 0.18 | – | – | 1.2 | – | 0.8 | – |
| CC(C)(C)[C@H](NC(=O)c1cc2cc(C(F)(F)P(=O)(O)O)ccc2s1)C(=O)N1CCC[C@H]1C(=O)N(CCC(=O)N1CCC(Nc2cccc3c2CN(C2CCC(=O)NC2=O)C3=O)CC1)c1ccc(Br)cc1 (some centres not stated) | > 5 | Not Active | – | – | – | – | – |
| CC(C)(C)[C@H](NC(=O)c1cc2cc(C(F)(F)P(=O)(O)O)ccc2s1)C(=O)N1CCC[C@H]1C(=O)N(CCC(=O)N1CC(CC#Cc2cccc3c2CN(C2CCC(=O)NC2=O)C3=O)C1)c1ccc(Br)cc1 (some centres not stated) | > 5 | Not Active | – | – | – | – | – |
